Source: PMC8394532, “Structural and Functional Insights into the Biofilm-Associated BceF Tyrosine Kinase Domain from Burkholderia cepacia” (Biomolecules, 2021)

Assays:
BceF kinase domain [1] = biological target: T1, BceF kinase domain (Burkholderia cepacia, UniProt Q0GYW2); assay: X-ray crystal structure, […] Å; format: binding; details: endogenous ADP co-purified from E. coli; active site; crystals pH 5.5
T1 construct: cytoplasmic kinase domain, residues 471-741; synthetic codon-optimised gene, N-terminal His6-TEV; E. coli BL21(DE3); partly phosphorylated C-terminal tyrosines

BceF kinase domain [2] = biological target: T1, BceF kinase domain; assay: microscale thermophoresis, NT-647 labelled protein; format: binding
[3] = biological target: the molecule itself; assay: SEC-MALS; Superdex 75 10/300 column, miniDAWN TREOS and Optilab T-rEX; SEC analysis at pH 7.5; single species of 59.1 kDa against a calculated monomer of 29.4 kDa

`Nc1ncnc2c1ncn2[C@@H]1O[C@H](COP(=O)(O)OP(=O)(O)O)[C@@H](O)[C@H]1O` [ADP] was tested, and the “X-ray crystal structure, 1.85 Å” value (BceF kinase domain [1]) was “The structure revealed an adenosine diphosphate (ADP) molecule bound at the active site”.

`Nc1ncnc2c1ncn2[C@@H]1O[C@H](COP(=O)(O)OP(=O)(O)NP(=O)(O)O)[C@@H](O)[C@H]1O` [AMP-PNP] showed a Kd (BceF kinase domain [2]) of 1640 ± 220 µM.

B1: BceF kinase domain (residues 471-741) from Burkholderia cepacia (domain or fragment)
chain: RRNMFQGIEDPDRIERAFNLPLYGLVPQSAEQVKLDAQAEKSGSRTRPILASLRPKDLSVESLRSLRTAMQFAMMDAKNRVIVLTGPTPGIGKSFLTVNLAVLLAHSGKRVLLIDADMRRGLLDRYFGLTSQPGLSELLSDQSALEDAVRETPVQGLSFISAGTRPPNPSELLMSTRLPQYLEGLGKRYDVVLIDSPPVLAVTDATIIGRMAGSTFLVLRSGMHTEGEIADAIKRLRTAGVDLEGGIFNGVPPKARGYGRGYAAVHEYLSA
modifications: partly phosphotyrosine in the C-terminal tail 725-741 (MS/MS: 28% non-phosphorylated, 68% monophosphorylated mostly at the third tyrosine, position 14 of the peptide)
notes: His6 tag and TEV site at the N-terminus; cleaved with TEV in the preparation for crystallisation; also called isolated BceF kinase domain; BceF tyrosine kinase domain; source: E. coli BL21(DE3), purified (HisTrap, TEV cleavage, second HisTrap, SEC Superdex 200); not shown: His6, N-terminal, cleaved
With B1 the “stoichiometry N” value [3] was 2.
